Assay results: US20070249545A1, “DIHYDROFOLATE REDUCTASE INHIBITION BY EPIGALLOCATECHIN GALLATE COMPOUNDS” (priority 2004, published 2007)

What was measured:
Jurkat T = assay: Growth of Jurkat T lymphoma cells; assay type: cell-based, human
Method: To determine whether EGCG inhibits DHFR activity in vivo, two human cancer cell, (Caco-2 from colon cancer and Jurkat T a lymphoma cell line) were incubated with various concentrations of EGCG in a standard medium.

S. maltophilia = assay: Broth dilution MIC determination; assay type: cell-based, Stenotrophomonas maltophilia
Method: Eighteen strains of cotrimoxazole susceptible S. maltophilia were collected during the last year at the Hospital Universitario Virgen de la Arrixaca (Murcia, Spain) from clinical isolates. Bacteria were frozen at −70° C. in glycerol-meat medium and inoculated onto Columbia agar (Fluka Chemie GmbH, Madrid, Spain) supplemented with 5% of defibrinated sheep blood 48 and 24 h prior to susceptibility testing.
MICs for the 18 strains were determined by the broth dilution method at a final inoculum of 5×10^5 CFU/ml, according to the guidelines recommended by the NCCLS by using cation-adjusted Mueller-Hinton broth (Fluka). After incubation at 37° C. for 24 h, the lowest concentration of the two-fold serially diluted EGCG at which no visible growth occurred was defined as its MIC.

[1] = eighteen S. maltophilia isolates

Substance: (−)-epigallocatechin gallate [EGCG]
- apoptosis (Jurkat T): induction of apoptosis
- cell cycle effect (Jurkat T): G0/G1 phase arrest
- effects in HT medium and in the presence of folinic acid or thymine (Jurkat T): highly attenuated
- IC50 (Jurkat T; standard medium, read-out: IC50 of cell growth): 10 µM
- MIC (S. maltophilia; S. maltophilia strain 1): 64 µg/mL
- MIC50 (S. maltophilia; [1]): 32 µg/mL
- MIC90 (S. maltophilia; [1]): 64 µg/mL
- MICs (range) (S. maltophilia; [1]): 4 to 256 µg/mL
